The record followed here is patent publication US10213409B2, “Substituted benzofurans, benzothiophenes, benzoselenophenes and indoles and their use as tubulin polymerisation inhibitors” (Bionomics Limited, priority 2006, dated 2019).

Holding throughout (type): cell-based
Assay [1] concerns Human umbilical vein endothelial cells (HUVECs), tumour type activated (Tum). The assay can be described thus: Proliferation Assay - Activated Endothelium (MTT). The note with it: for IC50: Homo sapiens, HUVEC, tumour type activated endothelial cells. The method, then: Proliferation Assay—Activated Endothelium:
Cells were cultured overnight at 37° C. 5% CO2. Medium was subsequently replaced with fresh medium including the compound or negative control. Cells were cultured for a period of 48 hrs. An MTT assay was performed to measure changes in cell numbers. Briefly, 20 μl of MTT reagent was added to cells containing 100 μl of EGM2 and incubated at 37° C. for 2 hours.

Assay [2] has as its system Human umbilical vein endothelial cells (HUVECs), normal quiescent type (Norm). Briefly: Proliferation Assay - Quiescent Endothelium (MTT). The note with it: HUVEC. The procedure: Proliferation Assay—Quiescent Endothelium:
Cells were cultured overnight at 37° C. 5% CO2. Medium was subsequently replaced with fresh medium including the compound or negative control. Cells were cultured for a period of 48 hrs. An MTT assay was performed to measure changes in cell numbers. Briefly, 20 μl of MTT reagent was added to cells containing 100 μl of EBM2+0.5% FBS and incubated at 37° C. for 2 hours.

A further assay deals with MCF-7. The assay can be described thus: Growth inhibition, Sulforhodamine B (SRB) or Systmex cell counting (CC) assay, MCF-7. Particulars: Homo sapiens, MCF7, concentration required to inhibit net cell growth by 50%, read-out: Cancer cell line IC50.

For `COc1cc(C(=O)c2c(NCCS(N)(=O)=O)oc3c(O)c(OC)ccc23)cc(OC)c1OC` [Example 45, 2-N-(Aminoethanesulphonamide)-3-(3,4,5-trimethoxybenzoyl)-6-methoxy-7-hydroxy-benzo[b]furan], the IC50 in assay [1] and in assay [2] was 1 to 10 nM each time.
For `COc1ccc(/C=C\c2cc(OC)c(OC)c(OC)c2)cc1OP(=O)(O)O` [Comparator B, reference compound], the half-inhibitory concentration (IC50) in assay [1] is 1 to 10 nM; in assay [2], 1 to 10 nM; in the assay on MCF-7, 5 nM.
`CCC/C=C/c1oc2c(O)c(OC)ccc2c1C(=O)c1cc(OC)c(OC)c(OC)c1` [Example 13]: the IC50 was 1 to 10 nM in assay [1], 1 to 10 nM in assay [2] and 8 nM in the assay on MCF-7.
For the compound `COc1ccc2c(C(=O)c3cc(OC)c(OC)c(OC)c3)c(C)sc2c1` [Example 51, 6-Methoxy-2-methyl-3-(3,4,5-trimethoxybenzoyl)benzo[b]thiophene, reference compound], the IC50 in assay [1] and in assay [2] was 1 to 10 nM each time.
For the compound `COc1cc(C(=O)c2c(C)oc3c(O)c(OC)ccc23)cc(OC)c1O` [Example 46, 3-(4-Hydroxy-3,5-di-methoxy-benzoyl)-7-hydroxy-6-methoxy-2-Methyl-benzo[b]furan], the IC50 lay in the range of 10 to 100 nM in assay [1] and 100 to 1000 nM in assay [2].
As to `COc1ccc2c(C(=O)c3c(F)c(F)c(F)c(F)c3F)coc2c1O` [Example 53, 3-(Pentafluorobenzoyl)-6-methoxy-7-hydroxybenzo[b]furan], the results for the IC50 (in assay [1]; in assay [2]; with MCF-7) were over 1000 nM, over 1000 nM and 800 nM, respectively.
As to `COc1cc(C(=O)c2c(CN3CCN(C)CC3)oc3c(O)c(OC)ccc23)cc(OC)c1OC` [Example 37, 2-(4-Methylpiperazin-1-yl)methyl-3-(3,4,5-tri-methoxy-benzoyl)-6-methoxy-7-hydroxy-benzo[b]furan], the half-inhibitory concentration (IC50) in assay [1] and in assay [2] was 10 to 100 nM in each case.
`COc1cc(C(=O)c2c(C)sc3c(O)c(OC)ccc23)cc(OC)c1OC` [Example 42, 7-Hydroxy-6-methoxy-2-methyl-3-(3,4,5-trimethoxybenzoyl)benzo[b]thiophene]: the values for the IC50 in assay [1] and in assay [2] were 0.1 to 1 nM and 1 to 10 nM, respectively.
For the compound `COc1cc(C(=O)c2coc3c(O)c(OC)ccc23)cc(OC)c1OC` [Example 6, 3-(3,4,5-Trimethoxybenzoyl)-6-methoxy-7-hydroxybenzofuran], the IC50 is 10 to 100 nM in assay [1], 10 to 100 nM in assay [2] and 45 nM in the assay on MCF-7.
`CNc1oc2c(O)c(OC)ccc2c1C(=O)c1cc(OC)c(OC)c(OC)c1` [Example 18, 2-(N-Methylamino)-7-hydroxy-3-(3,4,5-trimethoxybenzoyl)-6-methoxy-benzofuran]: the IC50 is 1 to 10 nM in assay [1], 0.1 to 1 nM in assay [2] and 3.5 nM in the assay on MCF-7.
In the case of `COc1cc(C(=O)c2c(Cn3ccnc3)oc3c(O)c(OC)ccc23)cc(OC)c1OC` [Example 35, 2-(1H-Imidazol-1-yl)methyl-3-(3,4,5-trimethoxybenzoyl)-6-methoxy-7-hydroxy-benzo[b]furan], the IC50 in assay [1] and in assay [2] was 1 to 10 nM in each case.
As to `COc1cc(C(=O)c2c(N)oc3c(O)c(OC)ccc23)cc(OC)c1OC` [Example 19, (2-Amino-7-hydroxy-6-methoxy-benzofuran-3-yl)-(3,4,5-trimethoxyphenyl)-methanone], the IC50 in assay [1] and in assay [2] was 1 to 10 nM in each case.
As for `COc1cc(C(=O)c2c(C)[nH]c3c(O)c(OC)ccc23)cc(OC)c1OC` [Example 39, 7-Hydroxy-6-methoxy-2-methyl-3-(3,4,5-trimethoxybenzoyl)-1H-indole], the IC50 lay in the range of 0.01 to 0.1 nM in assay [1] and 0.1 to 1 nM in assay [2].
The matching figures for `COc1cc(C(=O)c2c(C)[nH]c3c(O)c(OC)ccc23)cc(OC)c1O` [Example 40, 3-(3,5-Dimethoxy-4-hydroxybenzoyl)-7-hydroxy-6-methoxy-2-methyl-1H-indole]: 1 to 10 nM and 10 to 100 nM.
Take `COc1cc(C(=O)c2c(NCC(=O)O)oc3c(O)c(OC)ccc23)cc(OC)c1OC` [Example 23, [7-hydroxy-6-methoxy-3(3,4,5-trimethoxy-benzoyl)-benzofuran-2-ylamino]acetic acid]: the half-maximal inhibitory concentration (IC50) was 100 to 1000 nM in assay [1], 100 to 1000 nM in assay [2] and 260 nM in the assay with MCF-7.
Regarding `COc1ccc2c(C(=O)c3cc(OC)c(OC)c(OC)c3)coc2c1` [Example 5, 3-(3,4,5-Trimethoxybenzoyl)-6-methoxy-benzofuran, reference compound], the figures for the IC50 (in assay [1]; in assay [2]; in the assay with MCF-7) were 10 to 100 nM, 10 to 100 nM and 55 nM, respectively.
Take `COc1ccc2c(C(=O)c3cc(OC)c(OC)c(OC)c3)c(O)oc2c1` [Example 30, (2-Hydroxy-6-methoxybenzofuran-3-yl)(3,4,5-trimethoxyphenyl)methanone, reference compound]: the 50% inhibitory concentration (IC50) in assay [1] was 100 to 1000 nM; in assay [2], 100 to 1000 nM; with MCF-7, 575 nM.
`COc1cc(C(=O)c2c(CN(C)CC(=O)O)oc3c(O)c(OC)ccc23)cc(OC)c1OC` [Example 44, 2-[(N-Methyl-2-amino-aceticacid)-methenyl)-3-(3,4,5-trimethoxybenzoyl)-6-methoxy-7-hydroxy-benzo[b]furan]: the IC50 in assay [1] and in assay [2] was 10 to 100 nM each time.
On to `COc1ccc2c(C(=O)c3cc(OC)c(OC)c(OC)c3)c[nH]c2c1` [Comparator H, reference compound], for which the IC50 in assay [1] and in assay [2] was 1 to 10 nM in each case.
`COC(=O)/C=C/c1oc2c(O)c(OC)ccc2c1C(=O)c1cc(OC)c(OC)c(OC)c1` [Example 14, (E)-3-[7-Hydroxy-6-methoxy-3-(3,4,5-trimethoxy-benzoyl)-benzofuran-2-yl]-acrylic acid methyl ester]: the IC50 in assay [1] is 0.1 to 1 nM; in assay [2], 1 to 10 nM; in the assay with MCF-7, 2 nM.
Consider `C#Cc1oc2c(O)c(OC)ccc2c1C(=O)c1cc(OC)c(OC)c(OC)c1` [Example 8, 2-Ethynyl-7-hydroxy-6-methoxy-3-(3,4,5-trimethoxybenzoyl)-benzofuran], for which the figures for the IC50 (in assay [1]; in assay [2]; in the assay on MCF-7) were 1 to 10 nM, 1 to 10 nM and 3.3 nM, respectively.
On to `COc1cc(C(=O)c2c(CN(C)C)oc3c(O)c(OC)ccc23)cc(OC)c1OC` [Example 34, 2-Dimethylaminomethylene-3-(3,4,5-tri-methoxy-benzoyl)-6-methoxy-7-hydroxy-benzo[b]furan], for which the IC50 in assay [1] and in assay [2] was 1 to 10 nM throughout.
With `COc1cc(C(=O)c2c(NCCNC(=O)OC(C)(C)C)oc3c(O)c(OC)ccc23)cc(OC)c1OC` [Example 26, tert-Butyl-2-(7-hydroxy-6-methoxy-3-(3,4,5-trimethoxybenzoyl)benzofuran-2-ylamino)ethyl carbamate], the IC50 in assay [1] and in assay [2] was 1 to 10 nM throughout.
With `COc1cc(C(=O)c2c(Cn3nnc(N)n3)oc3c(O)c(OC)ccc23)cc(OC)c1OC` [Example 36, 2-(5-amino-2H-tetrazol-2-yl)-methyl-3-(3,4,5-tri-methoxy-benzoyl)-6-methoxy-7-hydroxy-benzo[b]furan], the half-inhibitory concentration (IC50) in assay [1] and in assay [2] was 1 to 10 nM in each case.
With `COc1cc(C(=O)c2c(SC)oc3c(O)c(OC)ccc23)cc(OC)c1OC` [Example 9, 7-Hydroxy-6-methoxy-2-methylsulfanyl-3-(3,4,5-trimethoxybenzoyl)benzofuran], the IC50 in assay [1] is 0.1 to 1 nM; in assay [2], 1 to 10 nM; in the assay on MCF-7, 1.2 nM. Also, the “potency towards activated (tumour) versus quiescent (normal) endothelial cells” value in assay [1] (comparison of activated and quiescent HUVEC assays, FIGS. 1 and 2, Table 1) is given as “higher potency towards tumour endothelial cells (activated) over normal endothelial cells (quiescent)”.
`COc1cc(C(=O)c2c(NN)oc3c(O)c(OC)ccc23)cc(OC)c1OC` [Example 10, 2-Hydrazino-7-hydroxy-6-methoxy-3-(3,4,5-trimethoxybenzoyl)-benzofuran]: the IC50 in assay [1] is 1 to 10 nM; in assay [2] it was 10 to 100 nM; with MCF-7, 35 nM.
On to `COc1ccc2c(C(=O)c3cc(OC)c(OC)c(OC)c3)c(Br)oc2c1` [Example 3, 2-Bromo-3-(3,4,5-trimethoxybenzoyl)-6-methoxybenzofuran, reference compound], for which the IC50 in assay [1] is 100 to 1000 nM; in assay [2] it was 100 to 1000 nM; in the assay with MCF-7, 500 nM.
As to `COc1ccc(/C=C\c2cc(OC)c(OC)c(OC)c2)cc1O` [Comparator A, reference compound], the half-inhibitory concentration (IC50) in assay [1] is 1 to 10 nM; in assay [2], 1 to 10 nM; with MCF-7 it was 5 nM.
`COc1cc(C(=O)c2c(NCCNC(=N)N)oc3c(O)c(OC)ccc23)cc(OC)c1OC` [Example 28, 1-[2-(7-hydroxy-6-methoxy-3-(3,4,5-trimethoxybenzoyl)benzofuran-2-ylamino)ethyl]guanidine]: the IC50 in assay [1] is 100 to 1000 nM; in assay [2] it was 10 to 100 nM.
Turning to `COC(=O)CN(C)Cc1oc2c(O)c(OC)ccc2c1C(=O)c1cc(OC)c(OC)c(OC)c1` [Example 43, 2-[(N-Methyl-2-amino-aceticacid methyl ester)-methenyl)-3-(3,4,5-trimethoxybenzoyl)-6-methoxy-7-hydroxy-benzo[b]furan], the IC50 in assay [1] and in assay [2] was 1 to 10 nM in each case.
As for `COc1cc(OC)cc(C(=O)c2coc3c(O)c(OC)ccc23)c1` [Example 52, 3-(3,5-Dimethoxybenzoyl)-7-hydroxy-6-methoxybenzo[b]furan], the IC50 is 100 to 1000 nM in assay [1], 100 to 1000 nM in assay [2] and 35 nM in the assay with MCF-7.

In general, IC50 refers to the point on the concentration scale where inhibition reaches its midpoint.
